In paper PMC9598282 (Antibiotics, 2022):
Values joined by “and” are separate entries in the source; they are usually repeats but may differ in a detail not shown here. Equal entries are not always repeated. Where two headings read alike, the source gives them in different places. Each block holds one compound with its values, some of them ahead of it.

How the values were obtained:
P. aeruginosa 114228 [1] = test: microbe, parasite or virus in culture; type: cell-based, Pseudomonas aeruginosa; conditions: one value per checkerboard plate
Protocol: (§1) The adjuvant properties of the guanidinylated polymyxins were evaluated using the checkerboard assay as previously described. The bacterial solution was prepared as described in the antimicrobial susceptibility assay. The antibiotic of interest and the adjuvant were serially diluted two-fold along the x- and y-axis on a 96-well plate, respectively, resulting in varying concentrations of both agents in each well. Equal volumes of bacterial solution were added to the designated wells. The well consisting of bacterial solution served as the positive control, while the wells containing only media served as the negative control. The plate was then incubated at 37 °C for 18 h. After incubation, an Emax Plus microplate reader (Molecular Devices, Union City, CA, USA) was used to measure the OD at a wavelength of 590 nm to confirm the turbidity. The fractional inhibitory concentration (FIC) index was then determined to establish the relationship between the antibiotic and adjuvant. The FIC index corresponds to the sum of the FICs of the antibiotic and adjuvant. The FIC of each agent is calculated by dividing its MIC when it is used in combination by its MIC when used alone. FIC indices ≤0.5, 0.5 < x ≤ 4 and >4 indicate synergy, additivity and antagonism, respectively.

P. aeruginosa PAO1 [2] = test: microbe, parasite or virus in culture; type: cell-based, Pseudomonas aeruginosa
Protocol: as §1

A. baumannii 110193 [3] = test: microbe, parasite or virus in culture; type: cell-based, Acinetobacter baumannii; conditions: Acinetobacter baumannii, 110193, agent alone, one value per checkerboard plate
Protocol: as §1

A. baumannii 92247 [4] = test: microbe, parasite or virus in culture; type: cell-based, Acinetobacter baumannii; conditions: one value per checkerboard plate
Protocol: as §1

A. baumannii AB027 [5] = test: microbe, parasite or virus in culture; type: cell-based, Acinetobacter baumannii; conditions: Acinetobacter baumannii, AB027, agent alone, one value per checkerboard plate
Protocol: as §1

A. baumannii ATCC 17978 [6] = test: microbe, parasite or virus in culture; type: cell-based, Acinetobacter baumannii
Protocol: as §1

E. coli ATCC 25922 [7] = test: microbe, parasite or virus in culture; type: cell-based, Escherichia coli
Protocol: as §1

P. aeruginosa 101243 [8] = test: Checkerboard assay; type: cell-based, Pseudomonas aeruginosa; conditions: one value per checkerboard plate
Protocol: as §1

P. aeruginosa P259-96918 [9] = test: Checkerboard assay; type: cell-based, Pseudomonas aeruginosa; conditions: Pseudomonas aeruginosa, P25996918; agent alone, one value per checkerboard plate
Protocol: as §1

[10] = test system: P. aeruginosa P262-101856; test: Checkerboard assay; type: cell-based, Pseudomonas aeruginosa; conditions: one value per checkerboard plate
Protocol: as §1

[11] = test system: P. aeruginosa P264-104354; test: Checkerboard assay; type: cell-based, Pseudomonas aeruginosa; conditions: Pseudomonas aeruginosa, P264104354, agent alone, one value per checkerboard plate
Protocol: as §1

A. baumannii AB031 = test: Checkerboard assay; type: cell-based, Acinetobacter baumannii; conditions: Acinetobacter baumannii, AB031, agent alone, one value per checkerboard plate
Protocol: as §1

E. coli 107115 [12] = test: microbe, parasite or virus in culture; type: cell-based, Escherichia coli; conditions: Escherichia coli, 107115, agent alone, one value per checkerboard plate
Protocol: as §1

P. aeruginosa PA 107092 [13] = type: cell-based, Pseudomonas aeruginosa
Protocol: as §1

P. aeruginosa PA 109084 [14] = type: cell-based, Pseudomonas aeruginosa
Protocol: as §1

P. aeruginosa PA 86052 [15] = type: cell-based, Pseudomonas aeruginosa; conditions: one value per checkerboard plate
Protocol: as §1

P. aeruginosa PA 88949 [16] = type: cell-based, Pseudomonas aeruginosa; conditions: one value per checkerboard plate
Protocol: as §1

P. aeruginosa PA 107092 [17] = test: Time-kill assay; type: cell-based, Pseudomonas aeruginosa; conditions: monotherapy, 8 μg/mL
Protocol: To study the time-dependent killing effects of the drug combinations, the time-kill kinetics were assessed. The time-kill assay was performed following the 8 μM (2 μg/mL) concentration of avibactam used in the checkerboard assay. […] This concentration also corresponds to the susceptibility breakpoint of both β-lactams.
For the preparation of the bacterial solution, an overnight grown culture was diluted in 0.85% saline solution and adjusted to 0.5 McFarland turbidity. […] The culture tubes were incubated at 37 °C, shaking at 250 rpm. At the appointed time intervals, a 100-μL aliquot was taken from each tube, serially diluted in phosphate-buffered saline (PBS) and plated on LB agar plates. The plates were incubated at 37 °C, and bacterial colonies were counted after 18 h. The bactericidal or bacteriostatic activity is determined based on the decrease in CFU over the time period. Bactericidal activity corresponds to ≥3 log10 reduction in CFU/mL, while bacteriostatic activity corresponds to <3 log10 reduction in CFU/mL.

P. aeruginosa 101243 [18] = type: cell-based, Pseudomonas aeruginosa; conditions: colistin-resistant isolate
Protocol: (§2) For the preparation of the bacterial solution, overnight grown culture was diluted in 0.85% saline solution, adjusted to 0.5 McFarland turbidity and further diluted in Mueller–Hinton broth for inoculation to a final concentration of 5 × 10^5 colony forming units/mL (CFU/mL). The agents were serially diluted two-fold in a 96-well plate, and equal volumes of bacterial solution were subsequently added to the designated wells. The well consisting of bacterial solution served as the positive control, while the well containing only media served as the negative control. The plate was then incubated at 37 °C for 18 h. After incubation, an Emax Plus microplate reader (Molecular Devices, Union City, CA, USA) was used to measure the optical density (OD) at a wavelength of 590 nm to confirm the turbidity. The antibacterial activity corresponded to the MIC, which is defined as the lowest concentration of the agent necessary to inhibit visible bacterial growth.

P. aeruginosa 114228 [19] = type: cell-based, Pseudomonas aeruginosa; conditions: colistin-resistant isolate
Protocol: as §2

P. aeruginosa P259-96918 [20] = type: cell-based, Pseudomonas aeruginosa; conditions: colistin-susceptible MDR isolate
Protocol: as §2

[21] = test system: P. aeruginosa P262-101856; type: cell-based, Pseudomonas aeruginosa; conditions: colistin-susceptible MDR isolate
Protocol: as §2

[22] = test system: P. aeruginosa P264-104354; type: cell-based, Pseudomonas aeruginosa; conditions: colistin-susceptible MDR isolate
Protocol: as §2

P. aeruginosa PAO1 [23] = type: cell-based, Pseudomonas aeruginosa; conditions: wild-type
Protocol: as §2

A. baumannii 110193 [24] = type: cell-based, Acinetobacter baumannii; conditions: colistin-susceptible MDR isolate
Protocol: as §2

A. baumannii 92247 [25] = type: cell-based, Acinetobacter baumannii; conditions: colistin-resistant isolate
Protocol: as §2

A. baumannii AB027 [26] = type: cell-based, Acinetobacter baumannii; conditions: colistin-susceptible MDR isolate
Protocol: as §2

A. baumannii ATCC 17978 [27] = type: cell-based, Acinetobacter baumannii; conditions: wild-type
Protocol: as §2

A. baumannii LAC-4 = type: cell-based, Acinetobacter baumannii; conditions: colistin-susceptible MDR isolate
Protocol: as §2

E. coli 107115 [28] = type: cell-based, Escherichia coli; conditions: colistin-susceptible MDR isolate
Protocol: as §2

E. coli 94393 = type: cell-based, Escherichia coli; conditions: colistin-resistant isolate
Protocol: as §2

E. coli 94474 = type: cell-based, Escherichia coli; conditions: colistin-resistant isolate
Protocol: as §2

E. coli ATCC 25922 [29] = type: cell-based, Escherichia coli; conditions: wild-type
Protocol: as §2

E. cloacae 118564 = type: cell-based, Enterobacter cloacae; conditions: colistin-resistant isolate
Protocol: as §2

E. cloacae 121187 = type: cell-based, Enterobacter cloacae; conditions: colistin-resistant isolate
Protocol: as §2

K. pneumoniae 113250 = type: cell-based, Klebsiella pneumoniae; conditions: colistin-resistant isolate
Protocol: as §2

K. pneumoniae 113254 = type: cell-based, Klebsiella pneumoniae; conditions: colistin-resistant isolate
Protocol: as §2

P. aeruginosa PA 107092 [30] = test: MIC, broth microdilution; type: cell-based, Pseudomonas aeruginosa; conditions: β-lactamase harboring isolate
Protocol: as §2

P. aeruginosa PA 109084 [31] = test: MIC, broth microdilution; type: cell-based, Pseudomonas aeruginosa; conditions: β-lactamase harboring isolate
Protocol: as §2

P. aeruginosa PA 86052 [32] = test: MIC, broth microdilution; type: cell-based, Pseudomonas aeruginosa; conditions: β-lactamase harboring isolate
Protocol: as §2

P. aeruginosa PA 88949 [33] = test: MIC, broth microdilution; type: cell-based, Pseudomonas aeruginosa; conditions: β-lactamase harboring isolate
Protocol: as §2

HEK293 cells = test: Cell viability assay (PrestoBlue); type: cell-based, human; conditions: 48 h
Protocol: (§3) The cytotoxicity of the guanidinylated polymyxins was evaluated using the cell viability assay as previously described. Human embryonic kidney cells (HEK293) and liver carcinoma cells (Hep G2) were cultured in flasks with Dulbecco’s Modified Eagle’s Medium (DMEM) supplemented with 10% fetal bovine serum. The cells were incubated at 5% CO2 in a humidified atmosphere at 37 °C. Equal volumes of media (50 μL) containing approximately 8000 cells (Hek293) or 5000 cells (HepG2) were added to wells in 96-well plates. The wells containing only media with no cells served as blanks. The plate was incubated for 24 h. Double the final desired concentrations of the agent were subsequently added to each well (experimental and blanks) in a volume of 50 μL. After 48 h incubation, PrestoBlue reagent from Invitrogen (Waltham, MA, USA,) was added to a final concentration of 10% (v/v), and plates were incubated for an additional1 h at 5% CO2. Fluorescence (excitation/emission, 560/590 nm) was measured with a SpectraMax M2 plate reader (Molecular Devices, United States). Values from the blank wells were subtracted from the corresponding wells with cells. The cell viability relative to the controls with a vehicle was calculated. The plots indicate the mean ± standard deviation of two experiments with five samples each. […]

Hep G2 cells = test: Cell viability assay (PrestoBlue); type: cell-based, human; conditions: 48 h
Protocol: as §3

[34] = one value per checkerboard plate

- MIC (P. aeruginosa 114228 [1]; Pseudomonas aeruginosa, 114228, agent alone): 4 µg/mL
- MIC alone (P. aeruginosa 114228 [1]; agent alone): 8 µg/mL
- Absolute MIC of antibiotic at 4 μg/mL GCol (P. aeruginosa PAO1 [2]): 0.25 µg/mL
- MIC (P. aeruginosa PAO1 [2]; Pseudomonas aeruginosa, PAO1, 18 h, agent alone, one value per checkerboard plate, read-out: MIC alone): 2 µg/mL
- MIC (A. baumannii 110193 [3]): 64 µg/mL
- MIC (A. baumannii 92247 [4]; Acinetobacter baumannii, 92247, agent alone): 16 µg/mL
- MIC alone (A. baumannii 92247 [4]; agent alone): 32 µg/mL
- MIC (A. baumannii AB027 [5]): 2050 µg/mL
- Absolute MIC of antibiotic at 2 μg/mL GCol (A. baumannii ATCC 17978 [6]): 4 µg/mL
- Absolute MIC of antibiotic at 2 μg/mL GPMB (A. baumannii ATCC 17978 [6]): 4 µg/mL
- MIC (A. baumannii ATCC 17978 [6]; Acinetobacter baumannii, ATCC17978, 18 h, agent alone, one value per checkerboard plate, read-out: MIC alone): 16 µg/mL
- Absolute MIC of antibiotic at 2 μg/mL GCol (E. coli ATCC 25922 [7]): 0.063 µg/mL
- Absolute MIC of antibiotic at 2 μg/mL GPMB (E. coli ATCC 25922 [7]): 0.063 µg/mL
- MIC (E. coli ATCC 25922 [7]; Escherichia coli, ATCC25922, 18 h, agent alone, one value per checkerboard plate, read-out: MIC alone): 0.25 µg/mL
- MIC (P. aeruginosa 101243 [8]; Pseudomonas aeruginosa, 101243, agent alone): 64 µg/mL
- MIC alone (P. aeruginosa 101243 [8]; agent alone): 32 µg/mL
- MIC (P. aeruginosa P259-96918 [9]): 512 µg/mL
- MIC ([10]; Pseudomonas aeruginosa, P262101856, agent alone): 8 µg/mL
- MIC alone ([10]; agent alone): 16 µg/mL
- MIC [11]: 64 µg/mL
- MIC (A. baumannii AB031): 32 µg/mL
- MIC (E. coli 107115 [12]): 512 µg/mL
- MIC antibiotic alone (P. aeruginosa PA 107092 [13]; [34]): 64 µg/mL
- MIC antibiotic alone (P. aeruginosa PA 107092 [13]; plates with 8 μM avibactam): 16 µg/mL and 8 µg/mL
- MIC antibiotic alone (P. aeruginosa PA 109084 [14]; [34]): 64 µg/mL and 128 µg/mL
- MIC antibiotic alone (P. aeruginosa PA 109084 [14]; plates with 8 μM avibactam): 16 µg/mL
- MIC antibiotic alone (P. aeruginosa PA 86052 [15]): 64 µg/mL
- MIC antibiotic alone (P. aeruginosa PA 88949 [16]): 32 µg/mL
Compound: CC(C)(O/N=C(\C(=O)N[C@@H]1C(=O)N2C(C(=O)[O-])=C(C[n+]3ccccc3)CS[C@H]12)c1csc(N)n1)C(=O)O [Ceftazidime]
- log10 increase (bacterial growth) over 24 h (P. aeruginosa PA 107092 [17]): ~ 2 log10

Compound: polymyxin B [PMB]
- MIC (P. aeruginosa 101243 [18]): >128 µg/mL
- MIC (P. aeruginosa 114228 [19]): 64 µg/mL
- MIC (P. aeruginosa P259-96918 [20]): ≤0.0625 µg/mL
- MIC [21]: 0.5 µg/mL
- MIC [22]: 2 µg/mL
- MIC (P. aeruginosa PAO1 [23]): 0.5 µg/mL
- MIC (A. baumannii 110193 [24]): 1 µg/mL
- MIC (A. baumannii 92247 [25]): 8 µg/mL
- MIC (A. baumannii AB027 [26]): 0.25 µg/mL
- MIC (A. baumannii ATCC 17978 [27]): 2 µg/mL
- MIC (A. baumannii LAC-4): 0.5 µg/mL
- MIC (E. coli 107115 [28]): ≤0.125 µg/mL
- MIC (E. coli 94393): 2 µg/mL
- MIC (E. coli 94474): 16 µg/mL
- MIC (E. coli ATCC 25922 [29]): 1 µg/mL
- MIC (E. cloacae 118564): >64 µg/mL
- MIC (E. cloacae 121187): >64 µg/mL
- MIC (K. pneumoniae 113250): >64 µg/mL
- MIC (K. pneumoniae 113254): >64 µg/mL
- MIC (P. aeruginosa PA 107092 [30]): 0.25 µg/mL
- MIC (P. aeruginosa PA 109084 [31]): 0.25 µg/mL
- MIC (P. aeruginosa PA 86052 [32]): 0.25 µg/mL
- MIC (P. aeruginosa PA 88949 [33]): 0.5 µg/mL
- concentration up to which HEK293 cells maintained >90% viability (HEK293 cells): 125 µM
- concentration up to which Hep G2 cells maintained 100% viability (Hep G2 cells): 25 µM
